Tests used:
WEE1 kinase enzyme = WEE1 kinase enzyme (Homo sapiens (Human), UniProt P30291); assay: WEE1 IC50 determination, LanthaScreen Terbium labeled TR-FRET kinase assay; format: biochemical; settings: WEE1 enzyme 1 nM
Protocol: IC50 values of compounds against WEE1 kinase enzyme were determined by LanthaScreen™ Terbium Labeled TR-FRET assay. Kinase assays were performed in 1× kinase buffer (# PV6135, Invitrogen, Life Technologies Grand Island, N.Y.) where total reaction volume was 10 μl in low-volume 384-well plates (#4511, Corning). Serially diluted compounds (3-fold) were incubated with WEE1 Enzyme (1 nM) (# PR7373A, Invitrogen, Life Technologies Grand Island, N.Y.) for 10 min, following which a mixture of ATP […] (# A1852, Sigma, St-Louis, Mo.) and fluorescent-PolyGT substrate (200 nM) (# PV3610, Invitrogen, Life Technologies Grand Island, N.Y.) was added and incubated in dark at room temperature for 1 h. After 1 h, 10 μl stop solution containing Terbium labeled antibody (4 nM) (# PV3529, Invitrogen, Life Technologies Grand Island, N.Y.) and EDTA (# E5134, Sigma, St-Louis, Mo.) (20 mM) in TR-FRET dilution buffer (# PV3574, Invitrogen, Life Technologies Grand Island, N.Y.) was added. Readings were taken in a Synergy Neo Plate reader (BioTek, Winooski) at single excitation of 340 nm and Dual emission at 495 nm and 520 nm respectively.
The % activity of test samples was calculated as (Sample−Min)*100/(Max−Min). [Max: DMSO control, complete reaction with enzyme & DMSO and Min: No enzyme & DMSO]. Percent inhibition (100-% activity) was fitted to the “four-parameter logistic model” in XLfit for determination of IC50 values.

A427 cells = assay: Cytotoxicity assay (resazurin), A427 cells, 72 hr; format: cell-based; settings: Homo sapiens, A-427, read-out: Cell Viability A427 IC50
Protocol: A549 (CCL-185; ATCC) and A427 (HTB-53; ATCC), both lung epithelial cell lines were seeded in their respective medium (DMEM/MEM, 10569044/41090101; Gibco) at a cell count of 1500 cells per 100 μL per well in a 96 well edge plate (167425; ThermoFisher). Cells were allowed to grow at 37° C. for 24 hr in 5% CO2 environment (culture conditions) in a Nuaire incubator (humidified). Serially diluted test compounds (100 μL) within the desired testing concentration ranges were added to the culture plate were further incubated in culture conditions for 72 hr and 96 hr for A427 and A549 respectively. The experiment was terminated at the designated incubation time by replacing the medium with 100 μL of 1 mM of resazurin (R7017; Sigma) prepared in respective culture medium, and the plates were further incubated in culture conditions for 4-6 hr. Fluorescence was recorded using a multimodal plate reader (Biotek Synergy Neo) at an excitation wavelength of 535 nm and emission wavelength of 590 nm to obtain relative fluorescence units. Data analysis was done by subtracting the background fluorescence (only medium blank) value from each reading and then normalizing with the vehicle control (DMSO treated cells) to obtain percent survival/proliferation. Percent survival was then subtracted by 100 to get the percent inhibition of proliferation which was used to calculate IC50 values. Potency of compounds in other cell lines (As-Pc-1, Panc-10.05, MDAMB231, A172) was determined in an analogous manner.

WEE1 kinase enzyme, sequence (P30291 whole entry): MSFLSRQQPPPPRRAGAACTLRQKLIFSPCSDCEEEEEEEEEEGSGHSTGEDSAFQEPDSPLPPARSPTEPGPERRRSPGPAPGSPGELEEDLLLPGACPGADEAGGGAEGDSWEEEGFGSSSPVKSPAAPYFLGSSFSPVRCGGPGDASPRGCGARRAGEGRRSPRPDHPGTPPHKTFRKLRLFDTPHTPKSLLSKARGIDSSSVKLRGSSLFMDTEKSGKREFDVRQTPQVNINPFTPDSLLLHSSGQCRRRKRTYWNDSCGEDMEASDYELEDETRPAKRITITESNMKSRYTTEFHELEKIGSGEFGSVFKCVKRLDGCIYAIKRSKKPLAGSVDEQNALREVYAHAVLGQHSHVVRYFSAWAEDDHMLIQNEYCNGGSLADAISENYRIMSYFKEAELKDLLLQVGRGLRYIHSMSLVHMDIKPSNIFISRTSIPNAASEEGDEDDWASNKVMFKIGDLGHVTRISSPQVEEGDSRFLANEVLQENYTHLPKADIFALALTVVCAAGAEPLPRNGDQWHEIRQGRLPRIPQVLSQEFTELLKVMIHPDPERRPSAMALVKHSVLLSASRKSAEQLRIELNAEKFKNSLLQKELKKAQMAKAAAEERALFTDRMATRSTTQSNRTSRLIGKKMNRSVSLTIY

SMILES | IC50 (WEE1 kinase enzyme) [nM] | IC50 (A427 cells) [nM]
O=C1c2cnc(Nc3ccc(N4CCOCC4)cc3)nc2OCN1c1c(Cl)cccc1Cl [Example 1.2] | 3260 | –
CC(C)(O)C(=O)N1Cc2cc(Nc3ncc4c(n3)OCN(c3c(Cl)cccc3Cl)C4=O)ccc2C(C)(C)C1 [Example 1.6] | 279 | –
O=C(CO)N1CCc2ccc(Nc3ncc4c(n3)OCN(c3c(Cl)cccc3Cl)C4=O)cc2C1 [Example 1.7] | 74 | –
O=C(CO)N1CCN(c2ccc(Nc3ncc4c(n3)OCN(c3c(Cl)cccc3Cl)C4=O)cc2)CC1 [Example 1.8] | 162 | –
O=C1c2cnc(Nc3ccc(N4CCNCC4)cc3)nc2OCN1c1ccccc1Cl [Example 1.9] | 193 | –
CN1CCN(c2ccc(Nc3ncc4c(n3)OCN(c3ccc(F)cc3Cl)C4=O)cc2)CC1 [Example 1.11] | 837 | –
O=C1c2cnc(Nc3ccc(N4CCNCC4CO)cc3)nc2OCN1c1c(Cl)cccc1Cl (centres unmarked) [Example 1.13] | 144 | –
CC1(C)CNCc2cc(Nc3ncc4c(n3)OCN(c3ccc(F)cc3Cl)C4=O)ccc21 [Example 1.14] | 173 | –
CCS(=O)(=O)N1CCN(c2ccc(Nc3ncc4c(n3)OCN(c3c(Cl)cccc3Cl)C4=O)cc2)CC1 [Example 1.15] | 1560 | –
CC1Oc2nc(Nc3ccc(N4CCNCC4)cc3)ncc2C(=O)N1c1c(Cl)cccc1Cl (centres unmarked) [Example 1.17] | 156 | –
CCN1CCN(c2ccc(Nc3ncc4c(n3)OCN(c3c(Cl)cccc3Cl)C4=O)cc2)CC1 [Example 1.18] | 192 | –
CC(C)N1CCN(c2ccc(Nc3ncc4c(n3)OCN(c3c(Cl)cccc3Cl)C4=O)cc2)CC1 [Example 1.19] | 206 | –
O=C1c2cnc(Nc3ccc(N4CCN(C5CC5)CC4)cc3)nc2OCN1c1c(Cl)cccc1Cl [Example 1.21] | 1390 | –
CCN1Cc2cc(Nc3ncc4c(n3)OCN(c3c(Cl)cccc3Cl)C4=O)ccc2C(C)(C)C1 [Example 1.22] | 30 | –
O=C1NCCc2ccc(Nc3ncc4c(n3)OCN(c3c(Cl)cccc3Cl)C4=O)cc21 [Example 1.23] | 607 | –
CN1CCN(c2ccc(Nc3ncc4c(n3)OCN(c3c(F)cccc3Cl)C4=O)cc2)CC1 [Example 1.25] | 68 | –
CC1CNCCN1c1ccc(Nc2ncc3c(n2)OCN(c2c(Cl)cccc2Cl)C3=O)cc1 (centres unmarked) [Example 1.26] | 88 | –
CC1(C)CNCc2cc(Nc3ncc4c(n3)OCN(c3c(F)cccc3Cl)C4=O)ccc21 [Example 1.28] | 35 | –
CN1CCN(c2ccc(Nc3ccc4c(n3)OCN(c3c(Cl)cccc3Cl)C4=O)cc2)CC1 [Example 1.31, 3-(2,6-dichlorophenyl)-7-(4-(4-methylpiperazin-1-yl)phenylamino)-2H-pyrido[3,2-e][1,3]oxazin-4(3H)-one] | 30000 | –
CC1CCN(c2ccc(Nc3ncc4c(n3)OCN(c3c(Cl)cccc3Cl)C4=O)cc2)CC1 [Example 1.59, 3-(2,6-dichlorophenyl)-7-(4-(4-methylpiperidin-1-yl)phenylamino)-2H-pyrimido[5,4-e][1,3]oxazin-4(3H)-one] | > 5000 | 14000
O=C1c2cnc(Nc3ccc(N4CCCNCC4)cc3)nc2OCN1c1c(Cl)cccc1Cl [Example 1.61] | 110 | 4120
CC1Oc2nc(Nc3ccc(N4CCNCC4)c(CO)c3)ncc2C(=O)N1c1c(Cl)cccc1Cl (centres unmarked) [Example 1.62] | 123 | 2800
O=C1c2cnc(Nc3ccc(N4CCC(F)(F)CC4)cc3)nc2OCN1c1c(Cl)cccc1Cl [Example 1.63] | > 5000 | –
O=C1c2cnc(Nc3ccc4cnccc4c3)nc2OCN1c1c(Cl)cccc1Cl [Example 1.64] | > 5000 | –
O=C1c2cnc(Nc3ccc4c(c3)CN(CC(F)F)CC4)nc2OCN1c1c(Cl)cccc1Cl [Example 1.65] | 1330 | –
O=C1c2cnc(Nc3ccc4[nH]ncc4c3)nc2OCN1c1c(Cl)cccc1Cl [Example 1.87] | 777 | 25400
O=C1c2cnc(Nc3ccc(N4CCNC(CO)C4)cc3)nc2OCN1c1c(Cl)cccc1Cl (centres unmarked) [Example 1.96] | 47 | 5890
CN(c1ccc(N2CCNCC2)cc1)c1ncc2c(n1)OCN(c1c(Cl)cccc1Cl)C2=O [Example 1.104] | > 5000 | 27800
CN(C)Cc1c[nH]c2cc(Nc3ncc4c(n3)OCN(c3c(Cl)cccc3Cl)C4=O)ccc12 [Example 1.107] | 110 | 7700
O=C1c2cnc(Nc3ccc4c(c3)NCCC4)nc2OCN1c1c(Cl)cccc1Cl [Example 1.121] | 501 | 7330

Continued, in another order:

IC50 (WEE1 kinase enzyme) [nM] | SMILES | IC50 (A427 cells) [nM]
66 | C[C@H]1CNCCN1c1ccc(Nc2ncc3c(n2)OCN(c2c(Cl)cccc2Cl)C3=O)cc1 [Example 1.172] | 4900
87 | C[C@@H]1CN(c2ccc(Nc3ncc4c(n3)OCN(c3c(Cl)cccc3Cl)C4=O)cc2)CCN1 [Example 1.173] | 3320
32 | C[C@@H]1CN(c2ccc(Nc3ncc4c(n3)OCN(c3c(Cl)cccc3Cl)C4=O)cc2F)CCN1 [Example 1.174] | 3400
66 | O=C1c2cnc(Nc3ccc4[nH]ccc4c3)nc2OCN1c1c(Cl)cccc1Cl [Example 1.175] | 22000
105 | Cc1cc(Nc2ncc3c(n2)OCN(c2c(Cl)cccc2Cl)C3=O)cc(C)c1N1CCNCC1 [Example 1.176] | 3250
32 | CN(C)C1CCN(c2ccc(Nc3ncc4c(n3)OCN(c3c(Cl)cccc3Cl)C4=O)cc2)CC1 [Example 1.223] | 1660
232 | O=C1c2cnc(Nc3ccc4c(c3)CCCN4)nc2OCN1c1c(Cl)cccc1Cl [Example 1.224] | 12100
282 | CCN(CC)CCOc1ccc(Nc2ncc3c(n2)OCN(c2c(Cl)cccc2Cl)C3=O)cc1 [Example 1.225] | 2160
188 | O=C1c2cnc(Nc3ccc4c(c3)NCCN4)nc2OCN1c1c(Cl)cccc1Cl [Example 1.226] | 5360
127 | CC1CN(c2ccc(Nc3ncc4c(n3)OCN(c3c(Cl)cccc3Cl)C4=O)cc2Cl)CCN1 (centres unmarked) [Example 1.228] | 1460
185 | C[C@H]1CN(c2ccc(Nc3ncc4c(n3)OCN(c3c(Cl)cccc3Cl)C4=O)cc2Cl)CCN1 [Example 1.229] | 2250
561 | CN1CCN(c2ccc(Nc3ncc4c(n3)SCN(c3c(Cl)cccc3Cl)C4=O)cc2)CC1 [Example 1.230] | 4940
142 | CC1(C)CNCc2cc(Nc3ncc4c(n3)SCN(c3c(Cl)cccc3Cl)C4=O)ccc21 [Example 1.231] | 2230
273 | CN(C)C1CCN(c2ccc(Nc3ncc4c(n3)SCN(c3c(Cl)cccc3Cl)C4=O)cc2)CC1 [Example 1.232] | 1120
165 | O=C1c2cnc(Nc3ccc4c(c3)CNCC4)nc2SCN1c1c(Cl)cccc1Cl [Example 1.233] | 7210
202 | O=C1c2cnc(Nc3ccc4c(c3)CCNC4)nc2SCN1c1c(Cl)cccc1Cl [Example 1.234] | 4840
111 | Cc1cc(Nc2ncc3c(n2)SCN(c2c(Cl)cccc2Cl)C3=O)ccc1N1CCNCC1 [Example 1.235] | 2900
335 | O=C1c2cnc(Nc3ccc(N4CCNCC4)c(Cl)c3)nc2SCN1c1c(Cl)cccc1Cl [Example 1.236] | 1770
45 | CC1(C)CNCc2cc(Nc3ncc4c(n3)SCN(c3c(F)cccc3Cl)C4=O)ccc21 [Example 1.238] | 5290
508 | CN(C)C1CCN(c2ccc(Nc3ncc4c(n3)SCN(c3c(Cl)cccc3Cl)C4=O)cc2C#N)CC1 [Example 1.239] | 765
303 | CN(C)C1CCN(c2ccc(Nc3ncc4c(n3)SCN(c3c(Cl)cccc3Cl)C4=O)cc2Cl)CC1 [Example 1.240] | 1640
95 | CN1Cc2cc(Nc3ncc4c(n3)SCN(c3c(Cl)cccc3Cl)C4=O)ccc2C(C)(C)C1 [Example 1.241] | 3490
340 | C[C@@H]1CN(c2ccc(Nc3ncc4c(n3)OCN(c3c(Cl)cccc3Cl)C4=O)cc2Cl)CCN1 [Example 1.919] | –
